Experimental findings from ChEMBL document CHEMBL3400058, “Synthesis, anticonvulsant activity and molecular modeling study of some new hydrazinecarbothioamide, benzenesulfonohydrazide, and phenacylacetohydrazide analogues of 4(3H)-quinazolinone” (Bioorg Med Chem Lett, 2015) are described below.

Data set [1] concerns Mus musculus. Kind of data set: Anticonvulsant activity in mouse assessed as decrease in convulsion frequency at 150 mg/kg, ip administered 20 mins prior to PTZ challenge relative to control. Type of data set: functional. Further details: scale not given: the % may be the effect or the level left. The conditions noted are these: route intraperitoneal.
Data set [2] concerns Mus musculus. Kind of data set: Anticonvulsant activity in mouse assessed as prolongation of convulsions onset time at 150 mg/kg, ip administered 20 mins prior to PTZ challenge relative to control. Particulars: route intraperitoneal. Type of data set: functional.
Data set [3] concerns Mus musculus. The data set can be described thus: Anticonvulsant activity in mouse assessed as delay of death time at 150 mg/kg, ip administered 20 mins prior to PTZ challenge relative to control. Type of data set: functional. The conditions noted are these: route intraperitoneal.
Data set [4] has as its system Mus musculus. Kind of data set: Anticonvulsant activity in mouse assessed as protection against PTZ-induced convulsions at 150 mg/kg, ip administered 20 mins prior to PTZ challenge relative to control. Type of data set: functional. Particulars: route intraperitoneal.
Data set [5] deals with Mus musculus. The data set can be described thus: Anticonvulsant activity in mouse assessed as decrease in convulsion frequency at 150 mg/kg, ip administered 20 mins prior to picrotoxin challenge relative to control. Type of data set: functional. Further details: scale not given: the % may be the effect or the level left. Particulars: route intraperitoneal.
The species entered for data set [6] is Mus musculus. The data set can be described thus: Protective index, ratio of TD50 for mouse to ED50 for anticonvulsant activity in mouse.
The nature of data set [7]: Therapeutic index, ratio of LD50 for mouse to ED50 for anticonvulsant activity in mouse. Type of data set: organism-based. Particulars: in vivo, read-out: Ratio LD50/ED50.
The subject of data set [8] is Mus musculus. Kind of data set: Anticonvulsant activity in mouse assessed as prolongation of convulsions onset time at 150 mg/kg, ip administered 20 mins prior to picrotoxin challenge relative to control. Type of data set: functional. Particulars: route intraperitoneal.
Data set [9] has as its system Mus musculus. The data set can be described thus: Anticonvulsant activity in mouse assessed as delay of death time at 150 mg/kg, ip administered 20 mins prior to picrotoxin challenge relative to control. Particulars: route intraperitoneal. It is filed as functional.
Data set [10] concerns Mus musculus. The data set can be described thus: Anticonvulsant activity in mouse assessed as protection against PTZ-induced convulsions at 50 mg/kg, ip administered 20 mins prior to PTZ challenge relative to control. Type of data set: functional. Particulars: route intraperitoneal.
Data set [11] deals with Mus musculus. Kind of data set: Anticonvulsant activity in mouse assessed as delay of death time at 50 mg/kg, ip administered 20 mins prior to PTZ challenge relative to control. Type of data set: functional. Particulars: route intraperitoneal.
Data set [12] has as its system Mus musculus. Kind of data set: Anticonvulsant activity in mouse assessed as decrease in convulsion frequency at 50 mg/kg, ip administered 20 mins prior to PTZ challenge relative to control. It is filed as functional. On the set-up: scale not given: the % may be the effect or the level left. The conditions noted are these: route intraperitoneal.
Data set [13] concerns Mus musculus. The data set can be described thus: Anticonvulsant activity in mouse assessed as prolongation of convulsions onset time at 50 mg/kg, ip administered 20 mins prior to PTZ challenge relative to control. Particulars: route intraperitoneal. Type of data set: functional.
Data set [14] deals with Mus musculus. The data set can be described thus: Toxicity in mouse at 150 mg/kg, […] 20 mins prior to PTZ challenge relative to control. Type of data set: organism-based. Further details: dose 150 mg/kg. Particulars: in vivo.

Consider `COc1cc2nc(SCC(=O)NNC(=O)c3ccccc3)n(Cc3ccccc3)c(=O)c2cc1OC`, for which the Activity in the data set on Mus musculus [1] and with Mus musculus [2] was 0% throughout.

In the case of `O=C(CSc1nc2ccc(Cl)cc2c(=O)n1Cc1ccccc1)NNC(=O)c1ccccc1`, the Activity with Mus musculus [1] stood at 23%; in the data set with Mus musculus [3] it was 75%; with Mus musculus [2], 185%.

Regarding `CCCC(=O)NNC(=O)CSc1nc2cc(OC)c(OC)cc2c(=O)n1Cc1ccccc1`, the Activity in the data set with Mus musculus [1] is reported as 0%; in the data set on Mus musculus [3] it was 58%; with Mus musculus [2], 114%.

With `O=C(CSc1nc2ccc(Cl)cc2c(=O)n1Cc1ccccc1)NNC(=S)Nc1ccccc1`, the Activity in the data set with Mus musculus [1] and in the data set on Mus musculus [2] was 0% in each case.

For the compound `COc1cc2nc(SCC(=O)NNC(=O)CCc3ccccc3)n(Cc3ccccc3)c(=O)c2cc1OC`, the Activity with Mus musculus [1] is 81%; with Mus musculus [3], 0%; in the data set on Mus musculus [2], 114%.

`CC(=O)NNC(=O)CSc1nc2ccc(Cl)cc2c(=O)n1Cc1ccccc1`: the Activity with Mus musculus [4] amounted to 100%; with Mus musculus [5], 60%; with Mus musculus [3] it was 303%; in the data set on Mus musculus [8] it was 63%; in the data set with Mus musculus [9] it was 50%. Besides, the “Ratio TD50/ED50” value in the data set listed under Mus musculus [6] was 8.7. In addition, in [7], the selectivity ratio is 9.7.

With `CCCC(CCC)C(=O)[O-].[Na+]` [VALPROATE SODIUM], the Activity in the data set on Mus musculus [10] is 100%.

For `O=C(CCc1ccccc1)NNC(=O)CSc1nc2ccc(Cl)cc2c(=O)n1Cc1ccccc1`, the Activity is 100% in the data set on Mus musculus [4], 74% with Mus musculus [1], 254% in the data set on Mus musculus [3] and 685% with Mus musculus [2]. The “Ratio TD50/ED50” value in the data set listed under Mus musculus [6] worked out at 4.6. Besides, the selectivity ratio in [7] amounted to 9.8.

In the case of `CCCC(=O)NNC(=O)CSc1nc2ccc(Cl)cc2c(=O)n1Cc1ccccc1`, the Activity is on record as 61% with Mus musculus [1], 14% in the data set with Mus musculus [3], 78% in the data set with Mus musculus [2] and 0% in the data set with Mus musculus [8].

In the case of `CCCC(=O)NNC(=O)CSc1nc2ccc(Cl)cc2c(=O)n1-c1ccccc1`, the Activity was 82% with Mus musculus [1], 75% with Mus musculus [3] and 43% with Mus musculus [2].

For the compound `CSc1nc2ccc(Cl)cc2c(=O)n1-c1ccccc1`, the Activity with Mus musculus [1] is on record as 0%; in the data set with Mus musculus [3] it was 44%; in the data set with Mus musculus [2], 114%.

With `COc1cc2nc(SCC(=O)NNC(=S)NCc3ccccc3)n(Cc3ccccc3)c(=O)c2cc1OC`, the Activity in the data set on Mus musculus [5] is 66%; with Mus musculus [1], 38%; with Mus musculus [3] it was 32%; in the data set with Mus musculus [2], 43%; in the data set with Mus musculus [8], 78%; with Mus musculus [9], 22%.

As for `O=C(CCc1ccccc1)NNC(=O)CSc1nc2ccc(Cl)cc2c(=O)n1-c1ccccc1`, the results for the Activity in the data set with Mus musculus [1] and with Mus musculus [2] were 0% and 43%, respectively.

As to `CSc1nc2ccc(Cl)cc2c(=O)n1Cc1ccccc1`, the Activity worked out at 91% with Mus musculus [5]; 61% with Mus musculus [1]; 5% in the data set with Mus musculus [3]; 114% with Mus musculus [2]; 36% in the data set on Mus musculus [8]; 0% in the data set with Mus musculus [9].

For `COc1cc2nc(SCC(=O)NNS(=O)(=O)c3ccc(C)cc3)n(Cc3ccccc3)c(=O)c2cc1OC`, the figures for the Activity in the data set on Mus musculus [1] and with Mus musculus [2] were 0% and 43%, respectively.

As to `COc1cc2nc(SCC(=O)NNC(=O)Cc3ccccc3)n(Cc3ccccc3)c(=O)c2cc1OC`, the Activity was 97% with Mus musculus [5]; 68% with Mus musculus [1]; 58% with Mus musculus [3]; 186% in the data set on Mus musculus [2]; 18% in the data set with Mus musculus [8]; 17% in the data set on Mus musculus [9].

`O=C(CSc1nc2ccc(Cl)cc2c(=O)n1-c1ccccc1)NNC(=O)c1ccccc1`: the Activity with Mus musculus [1] was found to be 87%; in the data set with Mus musculus [3], 0%; in the data set with Mus musculus [2], 114%.

For `O=C(CSc1nc2ccc(Cl)cc2c(=O)n1-c1ccccc1)NNC(=S)NCc1ccccc1`, the figures for the Activity in the data set with Mus musculus [1], with Mus musculus [3] and in the data set on Mus musculus [2] were 0%, 145% and 114%, respectively.

Take `CCCCC(=O)NNC(=O)CSc1nc2cc(OC)c(OC)cc2c(=O)n1Cc1ccccc1`: the Activity in the data set on Mus musculus [1] and in the data set on Mus musculus [2] was 0% in each case.

In the case of `COc1cc2nc(SC)n(-c3ccccc3)c(=O)c2cc1OC`, the Activity is given as 0% in the data set with Mus musculus [1], 461% in the data set on Mus musculus [3] and 35% in the data set on Mus musculus [2].

As for `CCC(=O)NNC(=O)CSc1nc2ccc(Cl)cc2c(=O)n1-c1ccccc1`, the Activity in the data set with Mus musculus [11] is given as 636%; in the data set on Mus musculus [12] it was 74%; with Mus musculus [10], 100%; in the data set on Mus musculus [13] it was 1471%. For the same compound, in the data set listed under Mus musculus [6], the “Ratio TD50/ED50” value is recorded as 8.5. The selectivity ratio in [7] turned out to be 24.6.

For the compound `O=C(CSc1nc2ccc(Cl)cc2c(=O)n1Cc1ccccc1)NNC(=S)NCc1ccccc1`, the Activity came out at 39% in the data set with Mus musculus [5]; 61% in the data set with Mus musculus [1]; 101% in the data set on Mus musculus [3]; 471% in the data set on Mus musculus [2]; 15% in the data set on Mus musculus [8]; 25% in the data set with Mus musculus [9].

For the compound `O=C(CSc1nc2ccc(Cl)cc2c(=O)n1-c1ccccc1)NNC(=O)Cc1ccccc1`, the Activity amounted to 0% with Mus musculus [12] and 43% with Mus musculus [13].

For the compound `COc1cc2nc(SC)n(Cc3ccccc3)c(=O)c2cc1OC`, the Activity result in the data set on Mus musculus [14] is “Toxic”.

With `CC(=O)NNC(=O)CSc1nc2ccc(Cl)cc2c(=O)n1-c1ccccc1`, the Activity turned out to be 48% with Mus musculus [1], 216% with Mus musculus [3] and 186% in the data set on Mus musculus [2].

Regarding `COc1cc2nc(SCC(=O)NNC(=S)Nc3ccccc3)n(Cc3ccccc3)c(=O)c2cc1OC`, the Activity in the data set with Mus musculus [5] was found to be 89%; with Mus musculus [1], 81%; in the data set on Mus musculus [3], 5%; with Mus musculus [2], 150%; in the data set with Mus musculus [8], 4%; in the data set with Mus musculus [9], 25%.

In the case of `Cc1ccc(S(=O)(=O)NNC(=O)CSc2nc3ccc(Cl)cc3c(=O)n2Cc2ccccc2)cc1`, the Activity came out at 74% with Mus musculus [1], 47% in the data set with Mus musculus [3] and 43% in the data set with Mus musculus [2].

On to `CCOC(=O)CSc1nc2ccc(Cl)cc2c(=O)n1-c1ccccc1`, for which the Activity in the data set on Mus musculus [1] and in the data set on Mus musculus [2] was 0% throughout.

In the case of `CCC(=O)NNC(=O)CSc1nc2cc(OC)c(OC)cc2c(=O)n1Cc1ccccc1`, the Activity in the data set on Mus musculus [4] came out at 100%; in the data set on Mus musculus [5] it was 79%; in the data set with Mus musculus [1] it was 81%; in the data set on Mus musculus [3], 216%; with Mus musculus [2] it was 471%; in the data set on Mus musculus [8] it was 11%. For the same compound, the Activity in the data set on Mus musculus [9] amounted to 8%. In addition, in the data set filed under Mus musculus [6], the “Ratio TD50/ED50” value is 4.1. In data set [7], the selectivity ratio is 5.1.

Take `COc1cc2nc(SCC(=O)NNC(C)=O)n(Cc3ccccc3)c(=O)c2cc1OC`: the Activity in the data set with Mus musculus [1] and in the data set on Mus musculus [2] was 0% in each case.

On to `CCCCC(=O)NNC(=O)CSc1nc2ccc(Cl)cc2c(=O)n1Cc1ccccc1`, for which the Activity in the data set with Mus musculus [1] and with Mus musculus [2] was 0% in each case.

Consider `CCCCC(=O)NNC(=O)CSc1nc2ccc(Cl)cc2c(=O)n1-c1ccccc1`, for which the Activity is 87% in the data set with Mus musculus [1], 47% in the data set on Mus musculus [3] and 114% in the data set on Mus musculus [2].

Regarding `O=C(CSc1nc2ccc(Cl)cc2c(=O)n1Cc1ccccc1)NNC(=O)Cc1ccccc1`, the Activity is 61% in the data set with Mus musculus [1], 47% with Mus musculus [3] and 43% in the data set with Mus musculus [2].

As to `CCC(=O)NNC(=O)CSc1nc2ccc(Cl)cc2c(=O)n1Cc1ccccc1`, the Activity is reported as 74% in the data set on Mus musculus [1], 0% in the data set with Mus musculus [3] and 43% with Mus musculus [2].

Take `Cc1ccc(S(=O)(=O)NNC(=O)CSc2nc3ccc(Cl)cc3c(=O)n2-c2ccccc2)cc1`: the figures for the Activity in the data set with Mus musculus [1], in the data set on Mus musculus [3] and in the data set on Mus musculus [2] were 48%, 40% and 43%, respectively.

Turning to `CCOC(=O)CSc1nc2ccc(Cl)cc2c(=O)n1Cc1ccccc1`, the Activity in the data set on Mus musculus [5] is listed as 25%; in the data set with Mus musculus [1], 0%; in the data set with Mus musculus [2] it was 0%; in the data set on Mus musculus [8], 5%; with Mus musculus [9] it was 17%.
